Experimental data from US8426202B2, “Cell culture medium” (Cellca GmbH, priority 2005, dated 2013).
Where “and” joins values, the source holds several entries; their conditions need not be identical. Equal entries are not always repeated.

What was measured:
[1] = system: CHO cell line that expresses an antibody; assay: Batch experiment with the substances according to the invention (Example 1); assay type: cell-based, Chinese hamster; settings: batch mode, substance 0.5-1 g/l, basal medium glucose 4.7 g/l, glutamine […]
Experimental: Cells were stored in the gas phase of liquid nitrogen. One to two ampoules were thawed in nutrient medium preheated to 37° C. and transferred to spinner bottles, shaking flasks or T-bottles. In the first few days of cultivation the medium was changed, depending on the clone.
Depending on the clone, cells were split either every second day or every third day or after two and three days alternately into new medium, i.e. a portion of the cell suspension was removed from culture and a smaller portion of the cell suspension was reused as inoculum for the next culture. This inoculum was made up with fresh prewarmed nutrient medium. Cells were incubated at 37° C. in an incubator with a CO2 atmosphere. An alternative for incubating cells was cultivation in an incubation chamber at 37° C., in this way cells were held in culture for several passages. A passage means a cultivation time of two to three days. At various points of time, cell suspension was taken from strain maintenance and used as inoculum for experiments. The experiments were carried out in various cultivation systems, for example in spinner bottles, T-bottles, shaking flasks, culture tubes or in controlled bioreactors.
(§1) Feed took place at regular intervals.

[2] = system: CHO cell line that expresses an antibody; assay: Fed-batch experiment with the substances according to the invention (Example 2, Table 2); assay type: cell-based, Chinese hamster; parameters: Viabil.: concentration or dose not given beside the values
Excerpt: as §1

Molecule `NCCC[C@H](N)C(=O)O` [Ornithine] has a Gln ([1]; day 0) of 1.53 mM, a Glucose ([1]; day 0) of 4.69 g/L and a Lactate ([1]; day 0) of 0 g/L. The “Specific Glutamin consumption (Gln/VCD)” value ([1]; day 0) was 1.49, the “Specific ammonia production (NH4/VCD)” value ([1]; day 0) was 1.18 and the “Specific glucose consumption (Gluc/VCD)” value ([1]; day 0) was 4.55. The “Specific lactate production (Lac/VCD)” value ([1]; day 0) was 0.00, the Viabil. ([1]; day 0) was 96% and the Gln ([1]; day 3) was 0.92 mM. For the same molecule, the Glucose ([1]; day 3) was 4.24 g/L, the Lactate ([1]; day 3) was 0.71 g/L and the “Specific Glutamin consumption (Gln/VCD)” value ([1]; day 3) was 0.15. The “Specific ammonia production (NH4/VCD)” value ([1]; day 3) was 0.29, the “Specific glucose consumption (Gluc/VCD)” value ([1]; day 3) was 0.67 and the “Specific lactate production (Lac/VCD)” value ([1]; day 3) was 0.11. The Viabil. ([1]; day 3) was 97%, the Gln ([1]; day 6) was 0.11 mM and the Glucose ([1]; day 6) was 2.7 g/L. The “Specific Glutamin consumption (Gln/VCD)” value ([1]; day 6) was 0.00, the “Specific ammonia production (NH4/VCD)” value ([1]; day 6) was 0.06 and the “Specific glucose consumption (Gluc/VCD)” value ([1]; day 6) was 0.06. The “Specific lactate production (Lac/VCD)” value ([1]; day 6) was 0.02, the Viabil. ([1]; day 6) was 98% and the Gln ([1]; day 8) was 0.37 mM. For the same molecule, the “Specific Glutamin consumption (Gln/VCD)” value ([1]; day 8) was 0.02, the “Specific ammonia production (NH4/VCD)” value ([1]; day 8) was 0.14 and the “Specific glucose consumption (Gluc/VCD)” value ([1]; day 8) was 0.09. The “Specific lactate production (Lac/VCD)” value ([1]; day 8) was 0.05, the Viabil. ([1]; day 8) was 89% and the Gln ([1]; day 11) was 0.46 mM. For the same molecule, the Glucose ([1]; day 11) was 0.53 g/L, the Lactate ([1]; day 11) was 1.26 g/L and the “Specific Glutamin consumption (Gln/VCD)” value ([1]; day 11) was 0.03. The “Specific ammonia production (NH4/VCD)” value ([1]; day 11) was 0.22, the “Specific glucose consumption (Gluc/VCD)” value ([1]; day 11) was 0.04 and the “Specific lactate production (Lac/VCD)” value ([1]; day 11) was 0.09. For the same molecule, the Viabil. ([1]; day 11) was 60%, the Viabil. ([2]; day 0, fed-batch) was 91% and the Viabil. ([2]; day 2, fed-batch) was 98% and 97%. For the same molecule, the Viabil. ([2]; day 5, fed-batch) was 96% and the Viabil. ([2]; day 8, fed-batch) was 94%.

With `NC(=O)NCCC[C@H](N)C(=O)O` [Citrulline] the Gln ([1]; day 0) was 1.53 mM, the Glucose ([1]; day 0) was 4.69 g/L and the Lactate ([1]; day 0) was 0 g/L. The NH4 ([1]; day 0) was 1.22 mM, the “Specific Glutamin consumption (Gln/VCD)” value ([1]; day 0) was 1.49 and the “Specific ammonia production (NH4/VCD)” value ([1]; day 0) was 1.18. The “Specific glucose consumption (Gluc/VCD)” value ([1]; day 0) was 4.55, the “Specific lactate production (Lac/VCD)” value ([1]; day 0) was 0.00 and the “Total Cell Density TCD” value ([1]; day 0) was 1.07 E5/ml. For the same molecule, the Viabil. ([1]; day 0) was 96%, the “Viable Cell Density (VCD)” value ([1]; day 0) was 1.03 E5/ml and the Gln ([1]; day 3) was 0.82 mM. It also gave a Glucose ([1]; day 3) of 4.14 g/L, a Lactate ([1]; day 3) of 0.83 g/L and an NH4 ([1]; day 3) of 1.87 mM. For the same molecule, the “Specific Glutamin consumption (Gln/VCD)” value ([1]; day 3) was 0.11, the “Specific ammonia production (NH4/VCD)” value ([1]; day 3) was 0.25 and the “Specific glucose consumption (Gluc/VCD)” value ([1]; day 3) was 0.55. The “Specific lactate production (Lac/VCD)” value ([1]; day 3) was 0.11, the “Total Cell Density TCD” value ([1]; day 3) was 7.7 E5/ml and the Viabil. ([1]; day 3) was 97%. The “Viable Cell Density (VCD)” value ([1]; day 3) was 7.5 E5/ml, the Gln ([1]; day 6) was 0.27 mM and the Glucose ([1]; day 6) was 2.62 g/L. For the same molecule, the Lactate ([1]; day 6) was 1.16 g/L, the NH4 ([1]; day 6) was 2.66 mM and the “Specific Glutamin consumption (Gln/VCD)” value ([1]; day 6) was 0.01. The “Specific ammonia production (NH4/VCD)” value ([1]; day 6) was 0.07, the “Specific glucose consumption (Gluc/VCD)” value ([1]; day 6) was 0.07 and the “Specific lactate production (Lac/VCD)” value ([1]; day 6) was 0.03. The “Total Cell Density TCD” value ([1]; day 6) was 39.6 E5/ml, the Viabil. ([1]; day 6) was 96% and the “Viable Cell Density (VCD)” value ([1]; day 6) was 37.9 E5/ml. The Gln ([1]; day 8) was 0.37 mM, the Glucose ([1]; day 8) was 1.7 g/L and the Lactate ([1]; day 8) was 1.12 g/L. The NH4 ([1]; day 8) was 2.86 mM, the “Specific Glutamin consumption (Gln/VCD)” value ([1]; day 8) was 0.03 and the “Specific ammonia production (NH4/VCD)” value ([1]; day 8) was 0.20. The “Specific glucose consumption (Gluc/VCD)” value ([1]; day 8) was 0.12, the “Specific lactate production (Lac/VCD)” value ([1]; day 8) was 0.08 and the “Total Cell Density TCD” value ([1]; day 8) was 17.8 E5/ml. For the same molecule, the Viabil. ([1]; day 8) was 82%, the “Viable Cell Density (VCD)” value ([1]; day 8) was 14.6 E5/ml and the Gln ([1]; day 11) was 0.51 mM. For the same molecule, the Glucose ([1]; day 11) was 0.7 g/L, the Lactate ([1]; day 11) was 1.48 g/L and the NH4 ([1]; day 11) was 3.26 mM. For the same molecule, the “Specific Glutamin consumption (Gln/VCD)” value ([1]; day 11) was 0.06, the “Specific ammonia production (NH4/VCD)” value ([1]; day 11) was 0.40 and the “Specific glucose consumption (Gluc/VCD)” value ([1]; day 11) was 0.09. The “Specific lactate production (Lac/VCD)” value ([1]; day 11) was 0.18, the “Total Cell Density TCD” value ([1]; day 11) was 21.3 E5/ml and the Viabil. ([1]; day 11) was 38%. The “Viable Cell Density (VCD)” value ([1]; day 11) was 8.2 E5/ml.

Work on `O=C([O-])/C=C/C(=O)[O-].[Na+].[Na+]` [Sodium fumarate] yielded a Gln ([1]; day 0) of 1.53 mM, a Glucose ([1]; day 0) of 4.69 g/L and a Lactate ([1]; day 0) of 0 g/L. The NH4 ([1]; day 0) was 1.22 mM, the “Specific Glutamin consumption (Gln/VCD)” value ([1]; day 0) was 1.49 and the “Specific ammonia production (NH4/VCD)” value ([1]; day 0) was 1.18. For the same molecule, the “Specific glucose consumption (Gluc/VCD)” value ([1]; day 0) was 4.55, the “Specific lactate production (Lac/VCD)” value ([1]; day 0) was 0.00 and the “Total Cell Density TCD” value ([1]; day 0) was 1.07 E5/ml. The Viabil. ([1]; day 0) was 96%, the “Viable Cell Density (VCD)” value ([1]; day 0) was 1.03 E5/ml and the Gln ([1]; day 3) was 0.72 mM. The Glucose ([1]; day 3) was 3.98 g/L, the Lactate ([1]; day 3) was 0.85 g/L and the NH4 ([1]; day 3) was 1.84 mM. For the same molecule, the “Specific Glutamin consumption (Gln/VCD)” value ([1]; day 3) was 0.10, the “Specific ammonia production (NH4/VCD)” value ([1]; day 3) was 0.26 and the “Specific glucose consumption (Gluc/VCD)” value ([1]; day 3) was 0.57. For the same molecule, the “Specific lactate production (Lac/VCD)” value ([1]; day 3) was 0.12, the “Total Cell Density TCD” value ([1]; day 3) was 7.1 E5/ml and the Viabil. ([1]; day 3) was 99%. For the same molecule, the “Viable Cell Density (VCD)” value ([1]; day 3) was 7 E5/ml, the Gln ([1]; day 6) was 0.24 mM and the Glucose ([1]; day 6) was 2.61 g/L. For the same molecule, the Lactate ([1]; day 6) was 1.19 g/L, the NH4 ([1]; day 6) was 2.49 mM and the “Specific Glutamin consumption (Gln/VCD)” value ([1]; day 6) was 0.01. For the same molecule, the “Specific ammonia production (NH4/VCD)” value ([1]; day 6) was 0.06, the “Specific glucose consumption (Gluc/VCD)” value ([1]; day 6) was 0.06 and the “Specific lactate production (Lac/VCD)” value ([1]; day 6) was 0.03. The “Total Cell Density TCD” value ([1]; day 6) was 41.5 E5/ml, the Viabil. ([1]; day 6) was 98% and the “Viable Cell Density (VCD)” value ([1]; day 6) was 40.6 E5/ml. For the same molecule, the Gln ([1]; day 8) was 0.37 mM, the Glucose ([1]; day 8) was 1.68 g/L and the Lactate ([1]; day 8) was 1.08 g/L. For the same molecule, the NH4 ([1]; day 8) was 2.58 mM, the “Specific Glutamin consumption (Gln/VCD)” value ([1]; day 8) was 0.02 and the “Specific ammonia production (NH4/VCD)” value ([1]; day 8) was 0.14. The “Specific glucose consumption (Gluc/VCD)” value ([1]; day 8) was 0.09, the “Specific lactate production (Lac/VCD)” value ([1]; day 8) was 0.06 and the “Total Cell Density TCD” value ([1]; day 8) was 22.3 E5/ml. For the same molecule, the Viabil. ([1]; day 8) was 86%, the “Viable Cell Density (VCD)” value ([1]; day 8) was 19.1 E5/ml and the Gln ([1]; day 11) was 0.47 mM. For the same molecule, the Glucose ([1]; day 11) was 0.46 g/L, the Lactate ([1]; day 11) was 1.46 g/L and the NH4 ([1]; day 11) was 3.06 mM. The “Specific Glutamin consumption (Gln/VCD)” value ([1]; day 11) was 0.03, the “Specific ammonia production (NH4/VCD)” value ([1]; day 11) was 0.21 and the “Specific glucose consumption (Gluc/VCD)” value ([1]; day 11) was 0.03. The “Specific lactate production (Lac/VCD)” value ([1]; day 11) was 0.10, the “Total Cell Density TCD” value ([1]; day 11) was 26.2 E5/ml and the Viabil. ([1]; day 11) was 55%. For the same molecule, the “Viable Cell Density (VCD)” value ([1]; day 11) was 14.3 E5/ml, the “Total Cell Density TCD” value ([2]; day 0, fed-batch) was 1.5 E5/ml and the Viabil. ([2]; day 0, fed-batch) was 91%. For the same molecule, the “Viable Cell Density (VCD)” value ([2]; day 0, fed-batch) was 1.37 E5/ml, the “Total Cell Density TCD” value ([2]; day 2, fed-batch) was 3.6 E5/ml and the Viabil. ([2]; day 2, fed-batch) was 97%. For the same molecule, the “Viable Cell Density (VCD)” value ([2]; day 2, fed-batch) was 3.5 E5/ml, the “Total Cell Density TCD” value ([2]; day 5, fed-batch) was 13.9 E5/ml and 13.2 E5/ml and the Viabil. ([2]; day 5, fed-batch) was 96% and 97%. For the same molecule, the “Viable Cell Density (VCD)” value ([2]; day 5, fed-batch) was 13.4 E5/ml and 12.8 E5/ml, the “Total Cell Density TCD” value ([2]; day 8, fed-batch) was 43.9 E5/ml and 43.8 E5/ml and the Viabil. ([2]; day 8, fed-batch) was 92%. The “Viable Cell Density (VCD)” value ([2]; day 8, fed-batch) was 40.3 E5/ml and 40.2 E5/ml.
